From patent US4965377A, “Process of forming 2-(2-bromo-2-nitroethenyl)-furan” (Great Lakes Chemical Corporation, priority 1989, dated 1990)
In brackets after ≈: the same amount, converted by molar mass. Where two headings read alike, the source gives them in different places. Blank lines part the entries; values can stand above or below the molecule they belong to.

How the values were obtained:
Pseudomonas aeruginosa [1] = experiment: Minimum inhibitory concentration against Pseudomonas aeruginosa; type: cell-based
Procedure: (§1) All of the minimum inhibitory concentration determinations were made in a nutrient-rich growth medium in the following manner. Each organism was inoculated into a nutrient-rich medium that supported its growth. Various concentrations of a solution of the antimicrobial in THFA (90% THFA, 10% antimicrobial) were dosed into the inoculated growth medium; inoculated media were also dosed only with THFA (no antimicrobial)to serve as controls. Two concentrations of antimicrobial were recorded for each organism after growth in the controls was visible (the lowest concentration that prevented growth and the highest concentration that allowed growth); the MIC is reported as the range between these concentrations.

bacteria and algae = experiment: Antimicrobial activity, general statement
Baccilus megaterium = experiment: Minimum inhibitory concentration against Bacillus megaterium; type: cell-based; details: Priestia megaterium, read-out: Minimum Inhibitory Conc
Procedure: as §1

Chlorella pyrenoidosa = experiment: Minimum inhibitory concentration against Chlorella pyrenoidosa; type: cell-based; details: Auxenochlorella pyrenoidosa
Procedure: as §1

[2] = system: Desulfovibro desulfuricans; experiment: Minimum inhibitory concentration against Desulfovibro desulfuricans; type: cell-based; details: Table 3; nutrient-rich growth medium; bacterium
Procedure: as §1

[3] = ASTM Pulp and Paper efficacy test (ASTM E600-85); type: cell-based; details: compared with two commercially successful antimicrobials
Text: BNEF can also be used as an antimicrobial in pulp and paper manufacturing applications.

Erwina anylovora = experiment: Minimum inhibitory concentration against Erwina anylovora; type: cell-based; details: Table 3; nutrient-rich growth medium; bacterium
Procedure: as §1

Rhizoctonia sp. = experiment: Minimum inhibitory concentration against Rhizoctonia sp.; type: cell-based; details: Table 3, nutrient-rich growth medium, fungus
Procedure: as §1

[4] = system: Xanthomonas poinsettiacola; experiment: Minimum inhibitory concentration against Xanthomonas poinsettiacola; type: cell-based; details: Table 3, nutrient-rich growth medium, bacterium
Procedure: as §1

Staphylococcus aureus = experiment: Minimum inhibitory concentration against Staphylococcus aureus; type: cell-based; details: Table 3, nutrient-rich growth medium, bacterium
Procedure: as §1

[5] = system: Agrobacterium tumefaciens; experiment: Minimum inhibitory concentration against Agrobacterium tumefaciens; type: cell-based; details: Table 3, nutrient-rich growth medium, bacterium
Procedure: as §1

Xanthomonas prunii = experiment: Minimum inhibitory concentration against Xanthomonas prunii; type: cell-based; details: Table 3, nutrient-rich growth medium, bacterium
Procedure: as §1

bacteria = experiment: Metal working fluid preservation test, bacteria (FIG. 3); type: cell-based, bacteria from spoiled metal working fluid; details: soluble oil, semisynthetic, and synthetic fluids; 72 hours, room temperature
Procedure: (§2) In addition to pulp and paper manufacturing, BNEF can be used as a metal working fluid preservative. […] These tests were performed in the following manner. A typical soluble oil, semi-synthetic, and synthetic metalworking fluid were prepared with tap water at a ratio of 20:1. A field sample of "spoiled" fluid was mixed with a nutrient broth (50/50) and incubated for 24 hours to serve as the bacterial inoculum. Fungi isolated from metalworking fluids were grown on agar plates. The fungi were harvested into a suspension which then served as the fungal inoculum. At time zero, 50 ml aliquots of each fluid were prepared. The fluids were inoculated and dosed with the antimicrobial agent at different concentrations. Time zero bacterial and fungal counts were taken on each control fluid. The samples were then placed on a mechanical shaker (at room temperature) for 72 hours. Bacterial and fungal counts were then performed. The preferred level of BNEF in this application is in the range of 10 to 100 ppm.

[6] = Kinetics of disinfection in phosphate buffer (FIG. 5); type: cell-based; details: 10 ppm (w/v); phosphate buffer pH 7.0
Text: FIG. 5 is a graph showing the kinetics of disinfection of 2-(2-bromo-2-nitroethenyl)-furan in comparison to its styrene analogue.

Xanthomonas palargonii = experiment: Minimum inhibitory concentration against Xanthomonas palargonii; type: cell-based; details: Table 3, nutrient-rich growth medium, bacterium
Procedure: as §1

Erwina caratovora = experiment: Minimum inhibitory concentration against Erwina caratovora; type: cell-based; details: Table 3; nutrient-rich growth medium; bacterium
Procedure: as §1

Erwina chysanthemi = experiment: Minimum inhibitory concentration against Erwina chysanthemi; type: cell-based; details: Table 3; nutrient-rich growth medium; bacterium
Procedure: as §1

Trichoderma virde = experiment: Minimum inhibitory concentration against Trichoderma virde; type: cell-based; details: Table 3, nutrient-rich growth medium, fungus
Procedure: as §1

[7] = system: naturally occurring microorganism in industrial cooling water; experiment: Efficacy in industrial cooling water, ASTM E-645-85 method (FIG. 4); type: cell-based; details: 5 ppm, 24 hours of contact
Text: FIG. 4 is a graph showing the efficacy of 2-(2-bromo-2-nitroethenyl)-furan in industrial cooling water applications according to the ASTM E-645-85 method.
BNEF can also be used in water treatment such as for example treatment of industrial cooling water. […] Shorter contact times require a higher concentration of BNEF in the application. Preferably an antimicrobially effective amount of BNEF should be added to reduce the viability of microorganisms by at least 90 percent. It is especially preferred to employ about 1 ppm to about 5 ppm of BNEF.

Alternaria solani = experiment: Minimum inhibitory concentration against Alternaria solani; type: cell-based; details: Table 3, nutrient-rich growth medium, fungus
Procedure: as §1

fungi = experiment: Metal working fluid preservation test, fungi; type: cell-based, fungi isolated from metalworking fluids; details: soluble oil, semisynthetic, and synthetic fluids; 72 hours, room temperature
Procedure: as §2

Asperillus niger = experiment: Minimum inhibitory concentration against Asperillus niger; type: cell-based; details: Table 3; nutrient-rich growth medium; fungus
Procedure: as §1

Pseudomonas aeruginosa [8] = experiment: Contact time required for 99.9% reduction in viability of Pseudomonas aeruginosa in water; type: cell-based
Procedure: Virtually all modern water treatment applications are alkaline. Even in an alkaline condition, BNEF is quite active. Data in Table 2 show the contact time of BNEF required for a 99.9% reduction in Viability of Pseudomonas aeruginosa in water. Several pure culture cell suspensions of Pseudomonas aeruginosa were prepared in phosphate-buffered water that had been adjusted to pH 7.0 or pH 8.1. The initial concentration of viable cells was determined by counting colony forming-units in the standard spread plate method. A tetrahydrofurfuryl alcohol (THFA) solution containing the antimicrobial (90% THFA, 10% antimicrobial) was added to cell suspensions at each pH such that 10 ppm of the antimicrobial was dosed. Similarly, THFA was added without antimicrobial to cell suspensions at each pH value to serve as no-treatment controls. The concentration of viable cells was then determined at regular time intervals for all of the cell suspensions until at least 99.9% reduction in viability (compared to the controls) was achieved by the antimicrobial treatment.

Saccharomyces sp. = experiment: Minimum inhibitory concentration against Saccharomyces sp.; type: cell-based; details: Table 3; nutrient-rich growth medium; fungus (yeast)
Procedure: as §1

[9] = system: Photobacterium phosphoreum; experiment: Minimum inhibitory concentration against Photobacterium phosphoreum; type: cell-based; details: Table 3, nutrient-rich growth medium, bacterium
Procedure: as §1

Pseudomonas aeruginosa [10] = experiment: Viability of Pseudomonas aeruginosa in phosphate buffered water (FIG. 1); type: cell-based; details: after 6 hours of contact, pH 7.2
Procedure: FIG. 1 illustrates a decrease in the viability of Pseudomonas aeruginosa, a common bacterial genus found in industrial cooling water upon contact with different concentrations of BNEF. The experiment was performed in phosphate buffered water at a pH of 7.2.

[11] = Table 4, analogues, read-out: MIC Against Pseudomonas aeruginosa
[12] = Table 1, read-out: Minimum Inhibitory Conc
[13] = Table 1, Chlorella pyrenoidosa, read-out: Minimum Inhibitory Conc
[14] = read-out: Minimum Inhibitory Conc

MIC (Pseudomonas aeruginosa [1]; [11]): 21 to 42 µg/mL (≈ 89.7 to 179 µM)
Structure (SMILES): O=[N+]([O-])C(Br)=Cc1cccs1 [2-(2-bromo-2-nitroethenyl)-thiophene]

MIC (Pseudomonas aeruginosa [1]; [12]): 63 to 125 µg/mL (≈ 453 to 899 µM)
MIC (Baccilus megaterium; Table 1, Baccilus megaterium): 63 to 125 µg/mL (≈ 453 to 899 µM)
MIC (Chlorella pyrenoidosa; [13]): 16 to 63 µg/mL (≈ 115 to 453 µM)
Structure (SMILES): O=[N+]([O-])C=Cc1ccco1 [2-nitro-1-(2-furyl)ethylene, reference compound]
antimicrobial activity relative to BNEF (bacteria and algae; background statement): lower antimicrobial activity

Structure (SMILES): O=CC=Cc1ccco1 [3-(2-furyl)acrolein]
MIC (Pseudomonas aeruginosa [1]; [14]): 250 to 500 µg/mL (≈ 2050 to 4090 µM)
MIC (Baccilus megaterium): 250 to 500 µg/mL (≈ 2050 to 4090 µM)
MIC (Chlorella pyrenoidosa; [14]): 16 to 63 µg/mL (≈ 131 to 516 µM)

MIC (Pseudomonas aeruginosa [1]; [11]): 10 to 20 µg/mL (≈ 33.7 to 67.4 µM)
Structure (SMILES): O=[N+]([O-])C(Br)=Cc1ccc(Br)o1 [5-bromo-2-(2-bromo-2-nitroethenyl)-furan]

MIC (Pseudomonas aeruginosa [1]; [11]): 21 to 42 µg/mL (≈ 90.5 to 181 µM)
Structure (SMILES): Cc1ccc(C=C(Br)[N+](=O)[O-])o1 [5-methyl-2-(2-bromo-2-nitroethenyl)-furan]

Structure (SMILES): O=[N+]([O-])C(Br)=Cc1ccc([N+](=O)[O-])o1 [5-nitro-2-(2-bromo-2-nitroethenyl)-furan]
MIC (Pseudomonas aeruginosa [1]; read-out: MIC Against Pseudomonas aeruginosa): 8 to 16 µg/mL (≈ 30.4 to 60.8 µM)

MIC (Pseudomonas aeruginosa [1]; [12]): 6 to 12 µg/mL (≈ 42.5 to 85.1 µM)
MIC (Baccilus megaterium; Table 1, Baccilus megaterium): 3 to 6 µg/mL (≈ 21.3 to 42.5 µM)
MIC (Chlorella pyrenoidosa; [13]): 4 to 16 µg/mL (≈ 28.4 to 113 µM)
Structure (SMILES): O=Cc1ccc([N+](=O)[O-])o1 [5-nitro-2-furaldehyde]

Structure (SMILES): O=[N+]([O-])C(Br)=Cc1ccco1 [BNEF, 2-(2-bromo-2-nitroethenyl)-furan]
MIC [2]: < 2 µg/mL
activity in Pulp and Paper efficacy test [3]: at least as active as two commercially successful antimicrobials
MIC (Erwina anylovora): < 0.5 µg/mL
MIC (Rhizoctonia sp.): < 1 µg/mL
MIC [4]: 0.5 to 1 µg/mL (≈ 2.29 to 4.59 µM)
MIC (Staphylococcus aureus): 3 to 7.6 µg/mL (≈ 13.8 to 34.9 µM)
MIC [5]: 0.5 to 1 µg/mL (≈ 2.29 to 4.59 µM)
MIC (Xanthomonas prunii): 2 to 5 µg/mL (≈ 9.17 to 22.9 µM)
effectiveness in metal working fluids against bacteria (bacteria): effective
effectiveness compared to β-bromo-β-nitrostyrene [6]: as effective as an antimicrobial in water treatment application as β-bromo-β-nitrostyrene
MIC (Xanthomonas palargonii): 1 to 2 µg/mL (≈ 4.59 to 9.17 µM)
antimicrobial activity (bacteria and algae; summary of Table 1): active at very low concentrations
MIC (Erwina caratovora): 0.5 to 1 µg/mL (≈ 2.29 to 4.59 µM)
MIC (Erwina chysanthemi): 0.5 to 1 µg/mL (≈ 2.29 to 4.59 µM)
MIC (Trichoderma virde): < 5 µg/mL
MIC (Pseudomonas aeruginosa [1]; [12]): 5 to 10 µg/mL (≈ 22.9 to 45.9 µM)
reduction in viability [7]: ~99%
MIC (Alternaria solani): < 1 µg/mL
effectiveness in metal working fluids against fungi (fungi): effective
MIC (Asperillus niger): < 1 µg/mL
MIC (Baccilus megaterium; Table 1, Baccilus megaterium): 5 to 10 µg/mL (≈ 22.9 to 45.9 µM)
MIC (Chlorella pyrenoidosa; [13]): 4 to 16 µg/mL (≈ 18.3 to 73.4 µM)
MIC (Chlorella pyrenoidosa; Table 3, nutrient-rich growth medium, algae, read-out: MIC): 4 to 16 µg/mL (≈ 18.3 to 73.4 µM)
Required Contact Time (99.9% reduction) (Pseudomonas aeruginosa [8]; 10 ppm, pH 7.0, Initial Cell Concentration 3.2 × 10^4): 5 h
Required Contact Time (99.9% reduction) (Pseudomonas aeruginosa [8]; 10 ppm, pH 8.1, Initial Cell Concentration ~1.0 × 10^4): 1 h
disinfection rate, effect of pH (Pseudomonas aeruginosa [8]; 10 ppm, pH level of 8 compared to pH level of 7): faster at a pH level of 8
MIC (Saccharomyces sp.): < 3 µg/mL
MIC [9]: 1 to 5 µg/mL (≈ 4.59 to 22.9 µM)
concentration required to eliminate 99.9% of the test inoculum (Pseudomonas aeruginosa [10]): about 10 ppm

MIC (Pseudomonas aeruginosa [1]; [12]): > 1000 µg/mL
MIC (Baccilus megaterium; Table 1, Baccilus megaterium): > 1000 µg/mL
MIC (Chlorella pyrenoidosa; [13]): 250 to 1000 µg/mL (≈ 2660 to 10600 µM)
Structure (SMILES): C=Cc1ccco1 [furylethylene]

Structure (SMILES): O=[N+]([O-])C(Br)=Cc1ccccc1 [β-bromo-β-nitrostyrene, reference compound]
disinfection rate, effect of higher pH (Pseudomonas aeruginosa [8]; β-bromo-β-nitrostyrene, source of finding not stated): Increased disinfection rate with higher pH
